# Experimental data taken from patent publication US5650404A, “Therapeutic composition for pancreatitis” (Senju Pharmaceutical Co., Ltd., priority 1994, dated 1997).
# Like-named read-outs stand apart in the source and are kept apart here.
# Assays:
# [1] = LD50 (toxicity); conditions: rat, in vivo, rats
# [2] = test system: ethionine-induced pancreatitis (serum amylase); assay: Effect on serum amylase elevation in ethionine-induced severe pancreatitis; assay type: in vivo, female BALB/c mice; conditions: for serum amylase level, 0 Hr: 0 Hr (start of ethionine-supplemented food, before dosing at 12 h); for serum amylase level, 0 Hr / serum amylase level, 24 Hr / serum amylase level, 48 Hr: p.o., EPC-K 141 mg/10 ml/kg, camostat 100 mg/10 ml/kg, mean ± S.E.; for serum amylase level, 24 Hr: 24 h after beginning of ethionine-supplemented food; for serum amylase level, 48 Hr: 48 h after beginning of ethionine-supplemented food, *1 (EPC-K): p < 0.01 vs distilled water
# Method: The therapeutic efficacy of the compound was tested in ethionine-induced pancreatitis which is a model of severe human pancreatitis. The efficacy evaluation was based on the degree of inhibition of the release of amylase into blood which is an indicator of pancreatitis.
# (1) Investigational Substance
# L-Ascorbyl DL-α-tocopheryl phosphate potassium (briefly, EPC-K) 141 mg/10 ml/kg, p.o.
# Camostat monomethanesulfonate (Ono Pharmaceutical) 100 mg/10 ml/kg, p.o.
# Animals used: Thirty female BALB/c mice weighing about 18 g as purchased from Japan SLC were used in this experiment. The mice were accommodated in an animal room controlled at 24°±4° C. and 55±15% R. H. and while the animals in the ethionine-induced pancreatitis groups were given low-choline, 0.54 ethionine-supplemented food (prepared by SLC) ad libitum, the animals in the untreated control group were given Labo MR Stock (tradename) (Nihon Nosan Kogyo) ad libitum. Water was freely available for animals in the ethionine pancreatitis groups and the untreated group. The mice were deprived of food 12 hours before commencement of feeding.
# Method: Each test substance was administered 12 hours after the beginning of intake of ethionine-supplemented food. Blood sampling was made 24 and 48 hours after the beginning of intake of ethionine-supplemented food and the serum amylase levels were determined.
SMILES,"LD50 ([1]; iv, i.v., read-out: LD50 i.v.) [mg/kg]","LD50 ([1]; po, p.o., read-out: LD50 p.o.) [mg/kg]","serum amylase level, 0 Hr [2] [mU/ml]","serum amylase level, 24 Hr [2] [mU/ml]","serum amylase level, 48 Hr [2] [mU/ml]","inhibition of serum amylase elevation (in words) ([2]; 48 h, compared with distilled water group)"
"Cc1c(C)c2c(c(C)c1OP(=O)(O)OC1=C(O)[C@@H]([C@@H](O)CO)OC1=O)CCC(C)(CCCC(C)CCCC(C)CCCC(C)C)O2 (mixture of isomers) [EPC-K, L-Ascorbyl DL-α-tocopheryl phosphate potassium]",≥ 100,≥ 5000,14573 ± 3132,12926 ± 2217,16257 ± 9763,–
CN(C)C(=O)COC(=O)Cc1ccc(OC(=O)c2ccc(NC(=N)N)cc2)cc1 [Camostat monomethanesulfonate],–,–,13978 ± 1012,12628 ± 1542,36288 ± 13921,no inhibitory effect on amylase elevation
